Peptide text beside a SMILES is read from it.
How the values were obtained:
[1] = HNE quenching activity in homogeneous phase (HNE consumption by HPLC); type: biochemical; settings: 200 µM HNE, 37°C, average ± S.D of 4 determinations; for RESIDUAL HNE (%) 1 hr of incubation: phosphate buffer 10 mM pH 7.4, 1 hr; for RESIDUAL HNE (%) 24 hrs of incubation: phosphate buffer 10 mM pH 7.4, 24 hrs
Excerpt: 4-hydroxy-trans-nonenal (HNE) was used throughout the study, as the prototype of α,β-unsaturated aldehydes since it represents the main oxidative degradation product of ω-6 polyunsaturated fatty acids, such as arachidonic and linoleic acids, and it is formed in large amount in the skin under different patho-physiological conditions, such as intrinsic and photo-induced skin aging [Tanaka N, Arch Dermatol Res, 293, 363-367, 2001].
A homogeneous phase model was first used to evaluate the ability of H-His-Tyr-OH and H-Tyr-His-OH to react and deactivate the cytotoxic agent HNE (quenching activity). In particular, the di-peptides were incubated at 37°C in a phosphate buffer, 10 mM pH 7.4, in the presence of 200 µM HNE. HNE consumption was determined after 1 hour and 24 hours of incubation by HPLC analysis, under the following experimental conditions: HP1050 (Hewlett Packard, Milano, Italy) equipped with a quaternary pump, self-sampling, on-line degasser, UV/VIS photodiode detector. The separations were performed by means of a Supelco LC18 column (25 cm x 4.6 mm i.d.; particle size 5 µm) and an isocratic elution system: 60% of phase A (H2O/CH3CN/HCOOH 90/1.0/0.] v/v/v) and 40% of phase B (H2O/CH3CN 10/90 v/v/v).
The values are expressed as the average ± S.D of 4 determinations.

[2] = Antioxidant activity, fluorimetric assay of R-Phicoerytrine (RPE) oxidation by AAPH-generated peroxyl radicals; type: biochemical; settings: substance at 25 µM; average ± S.D of 4 determination
Procedure: The amount of RPE oxidation is determined by fluorimetric analysis and the results are expressed as Trolox equivalents (reference compound).
(the hydrophilic analogue of vitamin E).
The values are the average ± S.D of 4 determination

[3] = tested on: keratinocytes (NCTC 2544 human cell line); assay: Cytoprotection of keratinocytes exposed to UVB and HNE (morphology, cell viability by calcein assay); type: cell-based; settings: for protective effect (morphological analyses and recovery in cell viability): added to incubation medium concomitant to HNE and UVB exposure, result in words
Procedure: The experimental model involves the exposure of the cellular mono-layer to the minimal UVB erythematal dose, MED=50 mJ/cm^2, (Vilber Lourmat VLX-3W radiometer equipped with a UVB probe at 312 nm)and, 4 hours of post-incubation, to the HNE insult (70 nmoles/mg protein).
The combination of physical (UVB) and chemical (HNE) stress is used to simulate the conditions of cellular damage of the skin during the cutaneous intrinsic and photo-induced aging process.

[4] = Copper (II) chelation by spectrophotometric analysis; type: physicochemical; settings: phosphate buffer (1 mM), 37°C, 1 mM copper sulphate (1:1 molar ratio); free copper (II) band at 800 nm disappears
Procedure: For this purpose, first we evaluated the ability of H-His-Tyr-OH and H-Tyr-His-OH to chelate copper (II) by spectro-photometric analysis. The peptides are dissolved in phosphate buffer (1 mM) and incubated at 37°C with 1 mM copper sulphate (1:1 molar ratio).

[5] = tested on: human kcratinocytcs cell line (NCTC 2544 human cell line); assay: Antioxidant cell protection of keratinocytes against AAPH-induced oxidative damage (MTT, morphology, lipid peroxidation with BODIPY 581/591); type: cell-based; settings: 6 hours exposure to 40 mM AAPH
Procedure: The H-His-Tyr-OH and H-Tyr-His-OH antioxidant activity was subsequently devaluated in a cellular model using human kcratinocytcs cell line (NCTC 2544 human cell line, Flow Laboratories, Irvine, UK), subjected to oxidative damage induced by a flux of peroxyl radicals generated by the radical initiator 2,2'-azobis([…]) dihydrochloride (AAPH). The following parameters were evaluated as markers of cellular damage: mitochondrial functionality as an index of cell viability (MTT assay), cellular morphology (phase contrast microscopic examinations), and lipid peroxidation, using 4,4-difluoro-5-(4-phenyl-1,3-butadienyl)-4-bora-3a,4a-diazo-s-indacene-3-undecanoic acid(BODIPY 581/591) as membrane fluorescent probe [Pap et al, FEBS Lett. 453:278-282, 1999]. A dramatic cytotoxic effect was observed after 6 hours exposure to 40 mM AAPH(fig.5).
The addition of H-His-Tyr-OH to the incubation medium causes a significant and dose-dependent cell protection, which is significant for all the parameters considered, already at 0.5 mM, with a total protection at 10 mM (fig. 5).

SMILES | RESIDUAL HNE (%) 1 hr of incubation [1] | RESIDUAL HNE (%) 24 hrs of incubation [1] | TROLOX equivalent [2] | protective effect (morphological analyses and recovery in cell viability) [3] | λmax of the absorption band of the peptide-copper(II) complex [4] | EC100 ([3]; Homo sapiens, NCTC-2544, light or radiation study, UVB 50 mJ/cm^2 + HNE 70 nmoles/mg protein, determined 6 hours after the addition of HNE, read-out: concentration at which cells are completely protected (morphological analysis)) | minimal effective concentration ([3]; Homo sapiens, NCTC-2544, light or radiation study, UVB 50 mJ/cm^2 + HNE 70 nmoles/mg protein, determined 6 hours after the addition of HNE, read-out: concentration at which the cytoprotective activity is already significant) | minimal effective concentration ([5]; mitochondrial functionality, morphology, lipid peroxidation, read-out: concentration at which cell protection is already significant for all the parameters considered) | EC100 ([5]; read-out: concentration giving total protection)
N=C(N)NN [Amino guanidine, reference compound] | 95.31 ± 0.08% | 72.04 ± 3.97% | – | – | – | – | – | – | –
NC(Cc1ccc(O)cc1)C(=O)NC(Cc1cnc[nH]1)C(=O)O (stereo not drawn) [H-Tyr-His-OH] (H-Tyr-His-OH; configuration not given here) | 85.31 ± 6.29% | 20.02 ± 4.09% | 17.28 ± 0.89 µM | dose-dependent protective effect | 600 nm | – | – | – | –
Cc1c(C)c2c(c(C)c1O)CCC(C)(C(=O)O)O2 (stereo not drawn) [Trolox, reference compound] | – | – | 25 µM | – | – | – | – | – | –
NC(Cc1cnc[nH]1)C(=O)NC(Cc1ccc(O)cc1)C(=O)O (stereo not drawn) [H-His-Tyr-OH] (H-His-Tyr-OH; configuration not given here) | 80.16 ± 7.57% | 15.41 ± 0.49% | 16.90 ± 0.54 µM | dose-dependent protective effect | 650 nm | 20000 µM | 2000 µM | 500 µM | 10000 µM
NCCC(=O)N[C@@H](Cc1cnc[nH]1)C(=O)O [Carnosine, reference compound] | – | – | 4.94 ± 0.3 µM | – | – | – | – | – | –

Source: EP1613294B1, “PEPTIDES AND DERIVATIVES THEREOF AS INHIBITORS OF OXIDATIVE DAMAGE OF THE SKIN” (Bottega Verde S.r.l., priority 2003, dated 2004)
